Assay results from patent US4730005A, “Leukotriene antagonist” (SmithKline Beckman Corporation, priority 1986, dated 1988).

test system: LTD4 induced bronchoconstriction in guinea pigs; experiment: in vivo inhibition of LTD4 induced bronchoconstriction (airway resistance RL) in guinea pigs; parameters: species or system guinea pig (adult male albino Hartley strain); details: 5 mg/kg, intravenous
Method: (§1) The leukotriene antagonist activity of the compounds of this invention is measured by the ability of the compounds to inhibit the leukotriene induced contraction of guinea pig tracheal tissues in vitro and to inhibit leukotriene induced bronchoconstriction in guinea pigs in vivo. The following methodologies were employed: In vitro: Guinea pig (adult male albino Hartley strain) tracheal spiral strips of approximate dimensions 2 to 3 mm cross-sectional width and 3.5 cm length were bathed in modified Krebs buffer in jacketed 10 ml tissue bath and continously aerated with 95% 02 /5% CO2. The tissues were connected via silk suture to force displacement transducers for recording isometric tension. The tissues were equilibrated for 1 hr., pretreated for 15 minutes with meclofenamic acid (1 μM) to remove intrinsic prostaglandin responses, and then pretreated for an additional 30 minutes with either the test compound or vehicle control. A cumulative concentration-response curve for LTD4 on triplicate tissues was generated by successive increases in the bath concentration of the LTD4. In order to minimize intertissue variability, the contractions elicited by LTD4 were standardized as a percentage of the maximum response obtained to a reference agonist, carbachol (10 μM).
Calculations: The averages of the triplicate LTD4 concentration-response curves both in the presence and absence of the test compound were plotted on log graph paper. The concentration of LTD4 needed to elicit 30% of the contraction elicited by carbachol was measured and defined as the EC30. The -log KB value for the test compound was determined by the following equations: [formula] In vivo: Anesthetized, spontaneously breathing guinea pigs (Adult male albino Hartley strain) were monitored on a Buxco pulmonary mechanics computer. Changes in airway resistance (RL) were calculated by the computer on a breath-by-breath basis at isovolumic points from signals measuring airflow and transpulmonary pressure using differential pressure transducers. Animals received either test compound or vehicle control intravenously via the jugular vein. LTD4 was then injected into the jugular vein. The bronchoconstriction produced was reflected by % changes in airways resistance relative to the baseline values obtained prior to injection of the test compound or vehicle control. Each guinea pig received either vehicle control or test compound.
Calculations: The average of 3-6 animals per treatment was calculated using the % changes in the pulmonary parameters for control and test compound-treated animals. The average % inhibition by the test compound was calculated from the following equation: [formula]

Compound	% Inhibition of RL [%]
CCCCCCCCCCc1ccccc1C(SCCC(=O)O)SCCC(=O)O [2 2 C10 H21 H, 4,6-dithia-5-(2-decylphenyl)nonanedioic acid]	60.7
CCCCCCCCCCCCc1ccccc1C(SCCC(=O)O)SCCC(=O)O [2 2 C12 H25 H, 4,6-Dithia-5-(2-dodecylphenyl)nonanedioic acid]	96.5

same assay, conditions: 10 mg/kg, intravenous

Compound	% Inhibition of RL [%]
O=C(O)CCSC(SCCC(=O)O)c1ccccc1OCCCCCCc1ccccc1 [2 2 OC6 H12 phenyl H, 4,6-Dithia-5-[2-(6-phenylhexyloxy)phenyl]nonanedioic acid]	26.4
CCCCCCCCCCCOc1ccccc1C(SCCC(=O)O)SCCC(=O)O [2 2 OC11 H23 H, 4,6-Dithia-5-(2-undecyloxyphenyl)nonanedioic acid]	89.4

molecular target: T1, leukotriene D4 (LTD4) induced contraction of guinea pig tracheal tissues (Cavia porcellus, UniProt Q2NNR5); experiment: in vitro inhibition of LTD4 induced contraction of guinea pig tracheal spiral strips; type: cell-based, guinea pig (adult male albino Hartley strain); details: guinea pig trachea, LTD4 agonist, 30 min pretreatment with test compound
T1 construct: Guinea pig (adult male albino Hartley strain) tracheal spiral strips; from tissue; host or cells: guinea pig trachea (spiral strips, adult male albino Hartley strain)
T1 sequence (Q2NNR5 1-340): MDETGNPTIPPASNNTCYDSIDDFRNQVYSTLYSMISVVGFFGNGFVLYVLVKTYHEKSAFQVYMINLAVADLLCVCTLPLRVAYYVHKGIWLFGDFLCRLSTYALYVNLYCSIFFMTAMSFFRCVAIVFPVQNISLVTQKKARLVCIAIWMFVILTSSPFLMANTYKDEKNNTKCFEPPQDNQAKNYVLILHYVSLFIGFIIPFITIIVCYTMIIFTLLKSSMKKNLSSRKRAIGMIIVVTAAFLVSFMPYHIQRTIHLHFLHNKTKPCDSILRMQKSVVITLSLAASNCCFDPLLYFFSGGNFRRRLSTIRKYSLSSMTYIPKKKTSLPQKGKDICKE
Method: as §1, with “μM). Calculations: The averages of the triplicate LTD4 concentration-response curves both in the presence and absence of the test compound were plotted on log graph paper. The concentration of LTD4 needed to elicit 30% of the contraction elicited by carbachol was measured and defined as the EC30. The -log KB value for the test compound was determined by the following equations: [formula] In vivo: Anesthetized, spontaneously breathing guinea pigs (Adult male albino Hartley strain) were monitored on a Buxco pulmonary mechanics computer. Changes in airway resistance (RL) were calculated by the computer on a breath-by-breath basis at isovolumic points from signals measuring airflow and transpulmonary pressure using differential pressure transducers. Animals received either test compound or vehicle control intravenously via the jugular vein. LTD4 was then injected into the jugular vein. The bronchoconstriction produced was reflected by % changes in airways resistance relative to the baseline values obtained prior to injection of the test compound or vehicle control. Each guinea pig received either vehicle control or test compound.” for “μM).”

Compound	Kb [nM]
CCCc1c(OCCCCCOc2ccccc2C(SCCC(=O)O)SCCC(=O)O)ccc(C(C)=O)c1O [4,6-Dithia-5-[2-(5-(4-acetyl-3-hydroxy-2-propylphenoxy)-pentoxy)phenyl]nonanedioic acid]	251
O=C(O)CCSC(SCCC(=O)O)c1cccc(CCCCCCCCc2ccccc2)c1 [2 2 H C8 H16 phenyl, 4,6-dithia-5-[3-(8-phenyloctyl)phenyl]nonanedioic acid]	1000
O=C(O)CCSC(SCCC(=O)O)c1ccccc1OCCCCCCc1ccccc1 [2 2 OC6 H12 phenyl H, 4,6-Dithia-5-[2-(6-phenylhexyloxy)phenyl]nonanedioic acid]	5010
CCCCCCCCCCCSc1ccccc1C(SCCC(=O)O)SCCC(=O)O [2 2 SC11 H23 H, 4,6-Dithia-5-(2-undecylthiophenyl)nonanedioic acid]	1000
CCCCC/C=C\C/C=C\COc1ccccc1C(SCCC(=O)O)SCCC(=O)O [2 2 OCH2CHCHCH2CHCHC5 H11 H, 4,6-dithia-5-[2-(2(Z),5(Z)-undecadienyloxy)phenyl]nonanedioic acid]	1000
CCCCCCCCCOc1ccccc1C(SCCC(=O)O)SCCC(=O)O [2 2 OC9 H19 H, 4,6-dithia-5-(2-nonyloxyphenyl)nonanedioic acid]	1580
O=C(O)CCSC(SCCC(=O)O)c1ccccc1CCCCCCCCc1ccc(C(F)(F)F)cc1 [2 2 C8 H16(4-CF3 phenyl) H, 4,6-Dithia-5-[2-(8-(4-trifluoromethylphenyl)octyl)phenyl]nonanedioic acid]	631
CCCCC/C=C\C/C=C\COc1cccc(C(SCCC(=O)O)SCCC(=O)O)c1 [2 2 H OCH2 CHCHCH2 CHCHC5 H11, 4,6-dithia-5-[3-(2(Z),5(Z)-undecadienyloxy)phenyl]nonanedioic acid]	794
O=C(O)CCSC(SCCC(=O)O)c1ccccc1CCCCCC/C=C\c1ccccc1 [2 2 (CH2)6CHCHphenyl H, 4,6-Dithia-5-[2-(8-phenyl-7(Z)-octenyl)phenyl]nonanedioic acid]	631
CCCCCCCCCCc1ccccc1C(SCCC(=O)O)SCCC(=O)O [2 2 C10 H21 H, 4,6-dithia-5-(2-decylphenyl)nonanedioic acid]	316
O=C(O)CCSC(SCCC(=O)O)c1ccccc1CCCCCCCCC1CCCCC1 [2 2 C8 H16 cyclohexyl H, 4,6-Dithia-5-[2-(8-cyclohexyloctyl)phenyl]nonanedioic acid]	3160
CCCCCCCCCCC#Cc1ccccc1C(SCCC(=O)O)SCCC(=O)O [2 2 CCC10 H21 H, 4,6-Dithia-5-[2-(1-dodecyn-1-yl)phenyl]nonanedioic acid]	794
CCCCCCCCCCCOc1ccc([N+](=O)[O-])cc1C(SCCC(=O)O)SCCC(=O)O [2 2 OC11 H23 NO2, 4,6-dithia-5-(5-nitro-2-undecyloxyphenyl)nonanedioic acid]	794
O=C(O)CCSC(SCCC(=O)O)c1cc(C(F)(F)F)ccc1CCCCCCCCc1ccccc1 [2 2 C8 H16 phenyl CF3, 4,6-Dithia-5-[2-(8-phenyloctyl)-5-trifluoromethylphenyl]nonanedioic acid]	251

Continued, values first:

Kb [nM]	Compound
398	C#CCCCCCCCCCCc1ccccc1C(SCCC(=O)O)SCCC(=O)O [2 2 C10 H20 CCH H, 4,6-Dithia-5-[2-(11-dodecynyl)phenyl]nonanedioic acid]
794	CCCCCCCCCCCOc1cccc(C(SCCC(=O)O)SCCC(=O)O)c1 [2 2 H OC11 H23, 4,6-dithia-5-(3-undecyloxyphenyl)nonanedioic acid]
1000	CCCCCCCCCCCOc1ccc(Br)cc1C(SCCC(=O)O)SCCC(=O)O [2 2 OC11 H23 Br, 4,6-dithia-5-(5-bromo-2-undecyloxyphenyl)nonanedioic acid]
1260	CCCCCCCCCCCCc1ccccc1C(SCC(=O)O)SCC(=O)O [1 1 C12 H25 H, 3,5-dithia-4-(2-dodecylphenyl)heptanedioic acid]
3160	CCCCCCCCCCCCc1csc(C(SCCC(=O)O)SCCC(=O)O)c1 [Formula (V) 2 2 H C12 H25, 4,6-Dithia-5-(4-dodecyl-2-thienyl)nonanedioic acid]
5010	CCCCCCCCCCCOc1ccccc1C(C)(SCCC(=O)O)SCCC(=O)O [4,6-dithia-5-methyl-5-(2-undecyloxyphenyl)nonanedioic acid]
6310	CCCCCCCCc1ccccc1C(SCCC(=O)O)SCCC(=O)O [2 2 C8 H17 H, 4,6-dithia-5-(2-octylphenyl)nonanedioic acid]
1000	CCCCCCCCCCCOc1ccc(O)cc1C(SCCC(=O)O)SCCC(=O)O [2 2 OC11 H23 OH, 4,6-dithia-5-(5-hydroxy-2-undecyloxyphenyl)nonanedioic acid]
2510	CCCCc1ccc(CCCCc2ccccc2C(SCCC(=O)O)SCCC(=O)O)cc1 [2 2 [drawing 19] H, 4,6-Dithia-5-[2-(4-(4-butylphenyl)butyl)phenyl]nonanedioic acid]
1580	CCCCCCCCCC/C=C/c1ccccc1C(SCCC(=O)O)SCCC(=O)O [2 2 CHCHC10 H21 trans H, 4,6-Dithia-5-[2-(1-trans-dodecenyl)phenyl]nonanedioic acid]
1260	CCCCCCCCCCCOc1ccc(OC)cc1C(SCCC(=O)O)SCCC(=O)O [2 2 OC11 H23 CH3 O, 4,6-dithia-5-(5-methoxy-2-undecyloxyphenyl)nonanedioic acid]
398	CCCCCCCCCCCOc1ccccc1C(SCCC(=O)O)SCCC(=O)O [2 2 OC11 H23 H, 4,6-Dithia-5-(2-undecyloxyphenyl)nonanedioic acid]
398	O=C(O)CCSC(SCCC(=O)O)c1ccccc1CCCCCCCSc1ccccc1 [2 2 C7 H4 S phenyl H, 4,6-Dithia-5-[2-(7-phenylthioheptyl)phenyl]nonanedioic acid]
1580	CCCCCCCCCCCCc1ccccc1C(SCCC(=O)O)[S+]([O-])CCC(=O)O (centres unmarked) [5-(2-dodecylphenyl)-4-sulfinyl-6-thianonanedioic acid]
631	CCCCCCCCCCCCc1ccccc1C(SCCC(=O)O)SCCC(=O)O [2 2 C12 H25 H, 4,6-Dithia-5-(2-dodecylphenyl)nonanedioic acid]
1260	CCCCCCCCCOc1cccc(C(SCCC(=O)O)SCCC(=O)O)c1 [2 2 H OC9 H19, 4,6-dithia-5-(3-nonyloxyphenyl)nonanedioic acid]
1260	CCCCCCCCCCCCc1ccsc1C(SCCC(=O)O)SCCC(=O)O [Formula (V) 2 2 C12 H25 H, 4,6-dithia-5-(3-dodecyl-2-thienyl)nonanedioic acid]
